In one assay the target is FABP5 (Homo sapiens, UniProt Q01469). The assay can be described thus: FABP5 inhibition rate, ANS substrate competition method (illustrated by the FABP4 system). It is filed as binding. The settings on record: compound 25 μM.
A further assay has as its target T1, Human FABP4 (Homo sapiens, UniProt P15090).
T1 construct: His tag; made in house; host or cells: E. coli BL21 (DE3)
Put plainly: FABP4 inhibition rate, ANS substrate competition (fluorescence) method. It is filed as binding. To be noted: compound 25 μM; 10 μM 1,8-ANS, 10 μM FABP4. The source says: (§1) Considering that inhibition of FABP3 would cause myocardial function damage and bring potential safety issues, we tested the inhibitory activity of some compounds on FABP3. The activity test is illustrated by the example of the FABP4 activity test system as below.
(§2) Experimental principle and method: Once the free non-covalent fluorescent probe ANS binds to FABP4, the ANS fluorescence intensity will increase and its spectrum will be blue shifted. In this experiment, the inhibitory effect of the compound on FABP4 was evaluated by measuring the change in the ANS fluorescence signal value. For the FABP4 inhibitory activity test, the ANS substrate competition method was used, and we used the method of Kane and Bernlohr (E. Marr, M. Tardie, M. Carty, T. Brown Phillips, I. K. Wang, W. Soeller, X. Qiu, G. Karam, Expression, purification, crystallization and structure of human adipocyte lipid-binding protein (aP2). Acta Crystallogr., Sect. F: Struct. Biol. Cryst. Commun. 62 (2006) 1058-1060.). Human FABP4 with a His tag was expressed in the BL21 (DE3) strain and then purified using a Ni column with a His tag to generate the protein. In the detection system, the concentration of 1,8-ANS substrate was 10 μM, the final concentration of FABP4 was 10 μM, and then the compound prepared by the present invention was added at the required concentration for incubation for 3 minutes, and finally the fluorescence signal was detected at an excitation wavelength (EX) of 370 nm/emission wavelength (EM) of 470 nm. The inhibition rate (%) of the test sample on FABP4 was calculated according to the fluorescence absorption value of the system. The inhibition rate (%) was calculated according to the following equation: […]
(§3) FX represents the fluorescence value (fluorescence, F) of the system measured in the presence of compound x;
(§4) Fbackground represents the fluorescence value of the fluorescent substrate ANS;
(§5) F0% represents the fluorescence value of the system when the inhibition rate is 0%, that is, when no compound was added.

The target in another assay is FABP3 (Homo sapiens, UniProt P05413). The assay can be described thus: FABP3 inhibition rate, ANS substrate competition method (illustrated by the FABP4 system). It is filed as binding. To be noted: compound 25 μM.
From the text: as §1, §2, §3, §4, §5

Assay [1] has as its system IL-6 secretion in THP-1 cells. The assay can be described thus: IL-6 secretion in LPS-stimulated THP-1 monocyte-derived macrophages (ELISA). It is filed as cell-based. To be noted: FIG. 3. The source says:
In FIG. 3, the vertical axis represents the amount (ng) of MCP-1 contained in each mg of cell protein. Wherein, Control (Con) represents blank control treatment, LPS represents lipopolysaccharide treatment, BMS309403 represents inhibitor positive control treatment, RO6806051 (RO) represents lead compound treatment, and Y2, Y3, Y15, Y16 and Y18 represent treatments with compounds Y2, Y3, Y15, Y16 and Y18 prepared in the present invention, respectively.
(§6) Effects of the compounds on monocyte chemoattractant factor-1 (MCP-1) and interleukin-6 (IL-6) in THP-1 monocyte-derived macrophage.
(§7) First, monocytic cell line THP-1 in logarithmic growth phase was plated on a 96-well plate at a cell density of 5*10^5/ml; then 100 nM phorbol myristate ester (PMA) was added to induce the cells for 24 hours to differentiate into macrophages; then the cells were washed once or twice with phosphate buffered saline (PBS), and different concentrations of compounds (5, 10, 25 μM) were added for incubation for 18 hours; finally, after 6 hours of stimulation with 100 ng/ml lipopolysaccharide (LPS), the supernatant was collected and diluted to a certain multiple and the contents of MCP-1 and IL-6 were detected using enzyme-linked immunosorbent assay (ELISA), and cell protein was collected and the protein concentration was measured by BCA method for calibration.

Assay [2] concerns MCP-1 secretion in THP-1 cells. Put plainly: MCP-1 secretion in LPS-stimulated THP-1 monocyte-derived macrophages (ELISA). It is filed as cell-based. The settings on record: 25 μM, 10 μM and 5 μM; 18 h incubation, 100 ng/ml LPS 6 h; FIG. 2.
From the text: In FIG. 2A to FIG. 2C, the vertical axis represents the amount (ng) of MCP-1 contained in each mg of cell protein: in FIG. 2D, the vertical axis represents the relative concentration of MCP-1 (ng/mg cellular protein % LPS). Wherein, Control represents blank control treatment, LPS represents lipopolysaccharide treatment, BMS309403 represents inhibitor positive control treatment, RO6806051 (RO) represents lead compound treatment, and Y2, Y3, Y15, Y16 and Y18 represent treatments with compounds Y2, Y3, Y15, Y16 and Y18 prepared in the present invention, respectively.
as §6, §7
(An ELISA detects its analyte on a solid surface through an enzyme-linked reagent.)

For orientation: inhibition means the change of the read-out against control, counted positive when it falls. Higher therefore signals a response far below the control.

Chain of FABP5 (Q01469 whole entry): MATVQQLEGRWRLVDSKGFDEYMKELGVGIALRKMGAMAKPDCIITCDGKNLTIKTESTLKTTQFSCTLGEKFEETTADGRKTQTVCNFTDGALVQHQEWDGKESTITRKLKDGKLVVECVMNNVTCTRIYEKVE
Chain of FABP3 (P05413 whole entry): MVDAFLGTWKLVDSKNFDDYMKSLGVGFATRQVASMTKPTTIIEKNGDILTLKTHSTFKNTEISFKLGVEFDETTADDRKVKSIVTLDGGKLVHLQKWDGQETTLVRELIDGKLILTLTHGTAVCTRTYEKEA
T1 sequence (P15090 whole entry): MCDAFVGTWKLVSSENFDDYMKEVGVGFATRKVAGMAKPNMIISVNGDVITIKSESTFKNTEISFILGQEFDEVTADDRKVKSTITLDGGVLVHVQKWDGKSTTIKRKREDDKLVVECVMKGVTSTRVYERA

`Cc1ccc2c(=O)n(C3CCCC3)c(C(=O)O)c(-c3ccccc3)c2c1` [Compound Y14, 2-Cyclopentyl-6-methyl-1-oxo-4-phenyl-1,2-dihydroisoquinoline-3-carboxylic Acid]: the results for the inhibition at 25 µM on FABP5, on Human FABP4 and at FABP3 were 55%, 90% and 26%, respectively.
The matching figures for `O=C(O)c1c(-c2ccccc2)c2cc(Cl)ccc2c(=O)n1C1CCCCCC1` [Compound Y7, 6-Chloro-2-cycloheptyl-1-oxo-4-phenyl-1,2-dihydroisoquinoline-3-carboxylic Acid]: 57%, 78% and 18%.
Turning to `O=C(O)c1c(-c2ccccc2)c2cc(Cl)ccc2c(=O)n1-c1ccc(Cl)cc1` [Compound Y8, 6-Chloro-2-(4-chlorophenyl)-1-oxo-4-phenyl-1,2-dihydroisoquinoline-3-carboxylic Acid], the inhibition at 25 µM at FABP5 is 1%; at Human FABP4, 35%.
Take `O=C(O)c1c(-c2ccccc2)c2ccccc2c(=O)n1C1CCCC1` [Compound Y12, 2-Cyclopentyl-1-oxo-4-phenyl-1,2-dihydroisoquinoline-3-carboxylic Acid]: the inhibition at 25 µM is 25% at FABP5 and 58% on Human FABP4.
As for `O=C(O)c1c(-c2ccccc2)c2cc(F)ccc2c(=O)n1C1CCCC1` [Compound Y13, 2-Cyclopentyl-6-fluoro-1-oxo-4-phenyl-1,2-dihydroisoquinoline-3-carboxylic Acid], the results for the inhibition at 25 µM on FABP5, at Human FABP4 and on FABP3 were 43%, 89% and 11%, respectively.
The matching figures for `O=C(O)c1c(-c2ccccc2)c2cc(Cl)ccc2c(=O)n1C1CCCCC1` [Compound Y1, 6-Chloro-2-cyclohexyl-1-oxo-4-phenyl-1,2-dihydroisoquinoline-3-carboxylic Acid]: 50%, 70% and 29%.
Take `O=C(O)c1c(-c2ccccc2)c2cc(Cl)ccc2c(=O)n1C1CCC1` [Compound Y6, 6-Chloro-2-cyclobutyl-1-oxo-4-phenyl-1,2-dihydroisoquinoline-3-carboxylic Acid]: the results for the inhibition at 25 µM at FABP5, at Human FABP4 and at FABP3 were 60%, 94% and 81%, respectively.
Consider `O=C(O)c1c(-c2cccnc2)c2cc(Cl)ccc2c(=O)n1C1CCCC1` [Compound Y21, 6-Chloro-2-cyclopentyl-1-oxo-4-(pyridin-3-yl)-1,2-dihydroisoquinoline-3-carboxylic Acid], for which the inhibition at 25 µM at FABP5 was found to be 31%; at Human FABP4, 76%; at FABP3, 9%.
The matching figures for `Cc1nn(C)cc1-c1c(C(=O)O)n(C2CCCC2)c(=O)c2ccc(Cl)cc12` [Compound Y22, 6-Chloro-2-cyclopentyl-4-(1,3-dimethyl-1H-pyrazol-4-yl)-1-oxo-1,2-dihydroisoquinoline-3-carboxylic Acid]: 36%, 36% and 1%.
`O=C(O)c1c(-c2ccc3c(c2)CCO3)c2cc(Cl)ccc2c(=O)n1C1CCCC1` [Compound Y20, 6-Chloro-2-cyclopentyl-4-(2,3-dihydrobenzofuran-5-yl)-1-oxo-1,2-dihydroisoquinoline-3-carboxylic Acid]: the inhibition at 25 µM on FABP5 is 25%; on Human FABP4 it was 32%.
Take `O=C(O)c1c(-c2ccc(C(F)(F)F)cc2)c2cc(Cl)ccc2c(=O)n1C1CCCC1` [Compound Y19, 6-Chloro-2-cyclopentyl-1-oxo-4-(4-(trifluoromethyl)phenyl)-1,2-dihydroisoquinoline-3-carboxylic Acid]: the inhibition at 25 µM on FABP5 turned out to be 22%; on Human FABP4, 14%; on FABP3, 3%.
The matching figures for `O=C(O)c1c(-c2ccccc2)c2cc(Cl)ccc2c(=O)n1C1CCOCC1` [Compound Y4, 6-Chloro-1-oxo-4-phenyl-2-(tetrahydro-2H-pyran-4-yl)-1,2-dihydroisoquinoline-3-carboxylic Acid]: 50%, 71% and 14%.
Consider `O=C(O)c1c(-c2ccc(CO)cc2)c2cc(Cl)ccc2c(=O)n1C1CCCC1` [Compound Y17, 6-Chloro-2-cyclopentyl-4-(4-(hydroxymethyl)phenyl)-1-oxo-1,2-dihydroisoquinoline-3-carboxylic Acid], for which the inhibition at 25 µM came out at 14% at FABP5 and 1% at Human FABP4.
Consider `O=C(O)c1c(-c2ccc(F)c(Cl)c2)c2cc(Cl)ccc2c(=O)n1C1CCCC1` [Compound Y18, 6-Chloro-4-(3-chloro-4-fluorophenyl)-2-cyclopentyl-1-oxo-1,2-dihydroisoquinoline-3-carboxylic Acid], for which, in assay [1] (25 μM), the “secretion of inflammatory factor IL-6 in THP-1 mononuclear macrophages” value is “could reduce the secretion of inflammatory factor IL-6”. For the same molecule, the “IL-6 secretion, tendency (no concentration stated)” value in assay [1] was “tendency to reduce IL-6 secretion but with no statistical difference”. For the same molecule, the inhibition at 25 µM came to 46% on FABP5, 91% on Human FABP4 and 16% on FABP3. The “secretion of inflammatory factor MCP-1 in THP-1 mononuclear macrophages” value in assay [2] was “could reduce the secretion of inflammatory factor MCP-1”.
For `O=C(O)c1c(-c2ccccc2)c2cc(Br)ccc2c(=O)n1C1CCCC1` [Compound Y10, 6-Bromo-2-cyclopentyl-1-oxo-4-phenyl-1,2-dihydroisoquinoline-3-carboxylic Acid], the inhibition at 25 µM at FABP5 was found to be 58%; at Human FABP4, 95%; on FABP3, 57%.
For `O=C(O)c1c(-c2ccccc2)c2cc(Cl)ccc2c(=O)n1C1CC1` [Compound Y5, 6-Chloro-2-cyclopropyl-1-oxo-4-phenyl-1,2-dihydroisoquinoline-3-carboxylic Acid], the inhibition at 25 µM at FABP5 was found to be 43%; at Human FABP4 it was 88%; on FABP3, 82%.
Regarding `O=C(O)c1c(-c2ccccc2)c2cc(Cl)c(Cl)cc2c(=O)n1C1CCCC1` [Compound Y11, 6,7-Dichloro-2-cyclopentyl-1-oxo-4-phenyl-1,2-dihydroisoquinoline-3-carboxylic Acid], the figures for the inhibition at 25 µM on FABP5, on Human FABP4 and at FABP3 were 41%, 77% and 48%, respectively.
For the molecule `O=C(O)c1c(-c2ccc(O)cc2)c2cc(Cl)ccc2c(=O)n1C1CCCC1` [Compound Y16, 6-Chloro-2-cyclopentyl-4-(4-hydroxyphenyl)-1-oxo-1,2-dihydroisoquinoline-3-carboxylic Acid], the figures for the inhibition at 25 µM on FABP5, on Human FABP4 and at FABP3 were 52%, 92% and 28%, respectively. The “secretion of inflammatory factor MCP-1 in THP-1 mononuclear macrophages” value in assay [2] is listed as “could reduce the secretion of inflammatory factor MCP-1”.
For the molecule `O=C(O)c1c(-c2ccccc2)c2cc(Cl)ccc2c(=O)n1N1CCCCC1` [Compound Y9, 6-Chloro-1-oxo-4-phenyl-2-(piperidin-1-yl)-1,2-dihydroisoquinoline-3-carboxylic Acid], the inhibition at 25 µM came to 72% on FABP5, 95% at Human FABP4 and 59% on FABP3.

The record behind these values is patent publication US20250170121A1, “ISOQUINOLINONE COMPOUND, AND PREPARATION METHOD AND USE THEREFOR” (FUDAN UNIVERSITY, priority 2022, published 2025).
